Experimental data reported in patent US20080312085A1, “Pesticidal Compositions” (priority 2005, published 2008).

Assays:
[1] = system: Cowpea Aphid (aphis craccivora); test: Cowpea aphid test, colonized potted cowpea plants sprayed; assay type: in vivo; conditions: population reduction recorded after 24, 72 and 120 hours, read-out: mortality in comparison with untreated controls
Method: B.3 Cowpea Aphid (aphis craccivora)
The active compounds were formulated in 50:50 acetone:water. Potted cowpea plants colonized with 100-150 aphids of various stages were sprayed after the pest population has been recorded. Population reduction was recorded after 24, 72, and 120 hours.

[2] = system: Green Peach Aphid (Myzus persicae); test: Green peach aphid test, leaves of infested pepper plants dipped; assay type: in vivo; conditions: 120 h, aphid mortality determined after 5 days, read-out: mortality in comparison with untreated controls
Description: B.2 Green Peach Aphid (Myzus persicae)
(§1) The active compounds were formulated in 50:50 acetone:water and 100 ppm Kinetica™ surfactant.
(§2) Pepper plants in the 2nd leaf-pair stage (variety ‘California Wonder’) are infested with approximately 40 laboratory-reared aphids by placing infested leaf sections on top of the test plants. The leaf sections are removed after 24 hr. The leaves of the intact plants are dipped into gradient solutions of the test compound. Aphid mortality on the treated plants, relative to mortality on check plants, is determined after 5 days.

[3] = system: Cotton Aphid (Aphis gossypii); test: Cotton aphid test, cotyledons of infested cotton plants dipped; assay type: in vivo; conditions: 120 h, aphid mortality determined after 5 days, read-out: mortality in comparison with untreated controls
Description: B.1 Cotton Aphid (Aphis gossypii)
as §1
as §2, with “Cotton” for “Pepper”, “cotyledon” for “2nd leaf-pair”, “‘Delta Pine’)” for “‘California Wonder’)”, “100” for “40”, “cotyledons” for “leaves”

[4] = system: Vetch Aphid (Megoura viciae); test: Vetch aphid test, sprayed bean leaf disks in microtiterplates; assay type: in vivo; conditions: foliar, 144 h, bean leaf disks sprayed with 2.5 μl, 6 days, read-out: mortality in comparison with untreated controls
Method: B.4 Vetch Aphid (Megoura viciae)
The active compounds were formulated in 1:3 DMSO:water. Bean leaf disks were placed into microtiterplates filled with 0.8% agar-agar and 2.5 ppm OPUS™. The leaf disks were sprayed with 2.5 μl of the test solution and 5 to 8 adult aphids were placed into the microtiterplates which were then closed and kept at 22-24° C. and 35-45% under fluorescent light for 6 days. Mortality was assessed on the basis of vital, reproduced aphids. Tests were replicated twice.

| melting point [°C] | SMILES | mortality at 300 ppm [1] [%] | mortality at 300 ppm [2] [%] | mortality at 300 ppm [3] [%] | mortality at 2500 ppm [4] [%] |
| --- | --- | --- | --- | --- | --- |
| – | Cc1cccc(CC(NC2=NCCS2)c2cccc(Cl)c2Cl)n1 (centres unmarked) [compound 4] | > 80 | > 80 | > 80 | – |
| – | Clc1cccc(C(Cc2ccc3ccccc3n2)NC2=NCCS2)c1Cl (centres unmarked) [compound 9] | > 80 | > 80 | > 80 | > 80 |
| – | Cc1ccc(CC(NC2=NCCS2)c2cccc(Cl)c2Cl)nc1 (centres unmarked) [compound 3] | > 80 | > 80 | > 80 | – |
| – | Clc1cccc(C(Cc2cccnc2)NC2=NCCS2)c1Cl (centres unmarked) [compound 13] | – | > 80 | – | – |
| – | c1ccc(C(Cc2ccco2)NC2=NCCS2)cc1 (centres unmarked) [compound 38] | – | > 80 | > 80 | – |
| – | Clc1cccc(C(Cc2nccc3ccccc23)NC2=NCCS2)c1Cl (centres unmarked) [compound 8] | > 80 | > 80 | > 80 | > 80 |
| – | c1ccc(C(Cc2cccs2)NC2=NCCS2)cc1 (centres unmarked) [compound 39] | – | > 80 | > 80 | – |
| 74 to 89 | Clc1cccc(C(Cc2cn(Cc3ccccc3)nn2)NC2=NCCS2)c1Cl (centres unmarked) [Compound Example 35] | – | – | – | – |
| – | Cc1cc(CC(NC2=NCCS2)c2cccc(Cl)c2Cl)on1 (centres unmarked) [compound 23] | > 80 | – | – | – |
| 71 to 73 | Clc1cccc(C(Cc2cc(Cl)c3ccccc3n2)NC2=NCCS2)c1Cl (centres unmarked) [Compound Example 12] | – | – | – | – |
| – | CCc1cc(CC(NC2=NCCS2)c2cccc(Cl)c2Cl)on1 (centres unmarked) [compound 24] | – | > 80 | > 80 | – |
| – | Cc1nc(CC(NC2=NCCS2)c2cccc(Cl)c2Cl)oc1C (centres unmarked) [compound 31] | > 80 | – | – | – |
| – | Clc1cccc(C(Cc2ccccn2)NC2=NCCS2)c1Cl (centres unmarked) [compound 1] | > 80 | > 80 | > 80 | – |
| – | Cc1cc(C)nc(CC(NC2=NCCS2)c2cccc(Cl)c2Cl)c1 (centres unmarked) [compound 6] | > 80 | > 80 | > 80 | > 80 |
